Experimental data as given in patent US20230241071A1, “COMBINATION TREATMENT OF LIVER DISORDERS” (Terns Pharmaceuticals, Inc., priority 2021, published 2023).

Tested on: mouse model of NASH
Assay: Mouse NASH model (high fat diet + CCl4), Compound 3 and Compound 2 alone and combined
Format: in vivo
Details: liver RNAseq vs vehicle NASH control, 28 d; Compound 3 3 mg/kg, Compound 2 1 mg/kg; adj. p<0.05, fold-change >1.5
Procedure: C57BL/6J mice were fed a high fat diet for 10 weeks to induce obesity (>38 g BW). Obese mice were injected intraperitoneally (i.p.) twice a week for four weeks with […] 25% CCl4 (formulated in olive oil) to induce fibrosis, and one group of normal BW mice were injected i.p. twice a week for four weeks with olive oil to serve as a healthy control. During the same dosing period, obese mice were fed orally once a day for 28 days with vehicle, Compound 3 or Compound 2 as single agents or in combination. On CCl4 dosing days, CCl4 was administered at 4 hours post compound or vehicle dosing. On day 27, all animals were fasted for about 16 hours before terminal euthanasia. On day 28, all animals were sacrificed and liver samples were collected for whole transcriptome analysis by RNA sequencing (RNAseq). RNAseq library (n=5 per group) preparation and sequencing was performed using Illumina standard protocols. Alignment of sequencing reads was performed using STAR aligner software and read counts were estimated using RSEM. Differentially expressed genes (compared to vehicle-treated NASH control mice) were determined using EdgeR software. Gene ontology analysis was performed using Advaita software with fold-change and adjusted p-value cutoffs of >1.5 and <0.05, respectively. Gene ontologies were derived from the Gene Ontology Consortium database (2019 Apr. 26) (Ashburner et al., Gene ontology: Tool for the unification of biology. Nature Genetics 25(1): 25-9 (2000); Gene Ontology Consortium, Creating the Gene Ontology Resource: Design and Implementation. Genome Research 11: 1425-1433 (2001)).
Gene ontology (GO) enrichment analysis was used to understand the potential biological consequences of the results in Table 22. To perform GO term enrichment analysis, the number (i.e., enrichment) of DEGs annotated for a particular term (i.e. biology process) was compared to the number of DEGs expected solely by chance. An over-representation approach was used to compute statistical significance (p-value) of observing at least the given number of DEGs; p-values were corrected for multiple comparisons.
On day 28 of treatment as described in Example 14, animals were euthanized for sample collections. Analysis of cholesterol, triglycerides, and ALT was done using a Hitachi 7180 clinical analyzer. Liver samples were processed for lipid quantification (colorimetric assays, SpectraMax 340PC384), histology, and RNA analysis. RNAseq library preparation (n=5 per group) and sequencing was performed using Illumina standard protocols. Alignment of sequencing reads was performed using STAR aligner and read counts were estimated using RSEM. Differentially expressed genes (DEGs) relative to NASH control were determined using EdgeR. Gene ontology analysis was performed using Advaita software.

Structure (SMILES)	Down DEGs	Total DEGs	Up DEGs
N#Cc1nn(-c2cc(Cl)c(Oc3n[nH]c(=O)c4ccccc34)c(Cl)c2)c(=O)[nH]c1=O [Compound 2, 2-(3,5-dichloro-4-((4-oxo-3,4-dihydrophthalazin-1-yl)oxy)phenyl)-3,5-dioxo-2,3,4,5-tetrahydro-1,2,4-triazine-6-carbonitrile]	635	1113	478
Cn1cc(C(=O)O)c2ccc(N3CCC(OCc4c(-c5c(Cl)cccc5Cl)noc4C4CC4)CC3)cc21 [Compound 3]	271	617	346
